Assay [1] addresses T1, BuSGBP-B (Bacteroides uniformis, UniProt A0ABC9NE57).
T1 construct: gene BACUNI_01487; signal peptide and lipidation Cys excluded; N-terminal His6 or His6-GST tag (pMCSG53 or pMCSG-GST); E. coli BL21(DE3)
T1 sequence (A0ABC9NE57 22-457): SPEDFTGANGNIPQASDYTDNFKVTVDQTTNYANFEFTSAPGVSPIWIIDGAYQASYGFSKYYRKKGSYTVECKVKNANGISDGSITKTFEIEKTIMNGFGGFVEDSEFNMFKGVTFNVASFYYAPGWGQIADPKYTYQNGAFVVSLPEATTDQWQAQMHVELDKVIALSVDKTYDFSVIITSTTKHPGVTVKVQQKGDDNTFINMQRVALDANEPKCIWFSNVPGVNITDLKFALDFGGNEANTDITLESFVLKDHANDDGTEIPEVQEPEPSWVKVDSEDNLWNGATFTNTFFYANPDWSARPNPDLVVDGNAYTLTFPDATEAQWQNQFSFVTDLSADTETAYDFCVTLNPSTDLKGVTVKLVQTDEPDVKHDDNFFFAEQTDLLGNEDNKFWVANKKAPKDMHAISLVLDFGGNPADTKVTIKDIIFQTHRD
Kind of assay: isothermal titration calorimetry. Type of assay: binding. The settings on record: 25 °C; single-site model. For orientation: Isothermal titration calorimetry measures the heat released or taken up as one component is titrated into another.

Assay [2] addresses T2, BuGH3 (Bacteroides uniformis, UniProt A0ABC9NEJ2).
T2 construct: gene BACUNI_01484; signal peptide and lipidation Cys excluded; N-terminal His6 tag (pET28a); E. coli BL21(DE3)
T2 sequence (A0ABC9NEJ2 20-750): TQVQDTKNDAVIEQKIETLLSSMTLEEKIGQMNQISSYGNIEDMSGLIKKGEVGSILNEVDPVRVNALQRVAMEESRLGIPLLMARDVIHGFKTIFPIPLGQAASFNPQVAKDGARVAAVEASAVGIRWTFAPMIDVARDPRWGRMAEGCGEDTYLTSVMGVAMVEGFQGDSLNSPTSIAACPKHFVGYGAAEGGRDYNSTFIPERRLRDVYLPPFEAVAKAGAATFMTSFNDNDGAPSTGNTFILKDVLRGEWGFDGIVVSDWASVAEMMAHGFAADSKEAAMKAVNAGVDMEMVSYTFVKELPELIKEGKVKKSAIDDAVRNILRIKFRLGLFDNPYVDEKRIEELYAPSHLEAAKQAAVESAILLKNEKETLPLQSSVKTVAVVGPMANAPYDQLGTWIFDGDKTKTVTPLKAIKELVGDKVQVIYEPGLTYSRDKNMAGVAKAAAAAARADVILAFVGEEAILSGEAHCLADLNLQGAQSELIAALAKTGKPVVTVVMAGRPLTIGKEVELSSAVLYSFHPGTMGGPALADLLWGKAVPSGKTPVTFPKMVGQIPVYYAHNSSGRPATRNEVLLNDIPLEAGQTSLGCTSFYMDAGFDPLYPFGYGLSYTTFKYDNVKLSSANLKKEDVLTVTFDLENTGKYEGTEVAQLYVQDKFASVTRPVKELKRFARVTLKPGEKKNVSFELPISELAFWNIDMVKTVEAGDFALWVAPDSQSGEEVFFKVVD
Kind of assay: continuous glucose release assay (hexokinase kit). Type of assay: biochemical. As to conditions: oligosaccharide hydrolysis, exo-acting.

Assay [3] has as its target T2, BuGH3. Kind of assay: continuous glucose release assay (hexokinase kit). Type of assay: biochemical. As to conditions: oligosaccharide hydrolysis, exo-acting. The source holds these as a separate data set.
Assay [4] has as its target T3, BuGH158 (Bacteroides uniformis, UniProt A0ABC9NDZ5).
T3 construct: gene BACUNI_01485; signal peptide and lipidation Cys excluded; N-terminal His6 tag (pMCSG53); E. coli BL21(DE3)
T3 sequence (A0ABC9NDZ5 19-429 limits assumed): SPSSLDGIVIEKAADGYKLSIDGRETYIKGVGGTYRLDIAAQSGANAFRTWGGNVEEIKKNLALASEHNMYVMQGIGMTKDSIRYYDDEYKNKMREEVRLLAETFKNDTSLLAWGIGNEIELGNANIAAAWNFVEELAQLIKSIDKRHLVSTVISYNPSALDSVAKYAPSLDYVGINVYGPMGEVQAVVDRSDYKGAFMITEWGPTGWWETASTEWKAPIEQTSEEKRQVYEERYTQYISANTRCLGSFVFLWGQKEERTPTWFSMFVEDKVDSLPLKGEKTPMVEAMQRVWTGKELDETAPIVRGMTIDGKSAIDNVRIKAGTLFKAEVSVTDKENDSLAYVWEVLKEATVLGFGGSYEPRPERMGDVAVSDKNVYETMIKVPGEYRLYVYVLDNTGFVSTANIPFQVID
Kind of assay: 1H-NMR of hydrolysis (anomer stereochemistry). Type of assay: biochemical. As to conditions: 50 mM sodium phosphate pH 7.0 in D2O; 20 μM enzyme, 10 mM substrate; retaining.

Molecules are shown by their SMILES.

Take `OC[C@H]1O[C@@H](O[C@@H]2[C@@H](O)[C@H](O[C@@H]3[C@@H](O)[C@H](O[C@H]4[C@H](O)[C@@H](CO)OC(O)[C@@H]4O)O[C@H](CO)[C@H]3O)O[C@H](CO)[C@H]2O)[C@H](O)[C@@H](O)[C@@H]1O` (stereo partly shown) [G3G3G3G, laminaritetraose]: the Ka entry in assay [1] is listed as “affinity increased with degree of polymerization”. For the same compound, the Km result in assay [2] is “after which Km values leveled off”.

In the case of `OC[C@H]1O[C@@H](OC[C@H]2OC(O)[C@H](O)[C@@H](O)[C@@H]2O)[C@H](O)[C@@H](O)[C@@H]1O` (stereo partly shown) [G6G, gentiobiose], in assay [3], the kcat/Km result was “kcat/Km value for laminaribiose (G3G) over cellobiose (G4G) and gentiobiose (G6G)”.

`OC[C@H]1O[C@@H](O[C@@H]2[C@@H](O)[C@H](O[C@@H]3[C@@H](O)[C@H](O[C@@H]4[C@@H](O)[C@H](O[C@H]5[C@H](O)[C@@H](CO)OC(O)[C@@H]5O)O[C@H](CO)[C@H]4O)O[C@H](CO)[C@H]3O)O[C@H](CO)[C@H]2O)[C@H](O)[C@@H](O)[C@@H]1O` (stereo partly shown) [G3G3G3G3G, laminaripentaose]: the Ka result in assay [1] was “affinity increased with degree of polymerization”. Also, in assay [2], the Km result was “after which Km values leveled off”.

Take `OC[C@H]1O[C@@H](O[C@H]2[C@H](O)[C@@H](CO)OC(O)[C@@H]2O)[C@H](O)[C@@H](O)[C@@H]1O` (stereo partly shown) [G3G, laminaribiose]: in assay [2], the Km entry is “Km values decreased between the di- and trisaccharide”.

As for `O=[N+]([O-])c1ccc(O[C@@H]2O[C@H](CO)[C@@H](O)[C@H](O[C@@H]3O[C@H](CO)[C@@H](O)[C@H](O)[C@H]3O)[C@H]2O)c(Cl)c1` [G3G-CNP, 2-chloro-4-nitrophenyl laminaribioside], the “1H-NMR of hydrolysis (anomer stereochemistry)” value in assay [4] is given as “NMR analysis of the hydrolysis of 2-chloro-4-nitrophenyl laminaribioside (G3G-CNP)”.

On to `OC[C@H]1O[C@@H](O[C@H]2[C@H](O)[C@@H](O)C(O)O[C@@H]2CO)[C@H](O)[C@@H](O)[C@@H]1O` (stereo partly shown) [G4G, cellobiose], for which, in assay [3], the kcat/Km result is “kcat/Km value for laminaribiose (G3G) over cellobiose (G4G) and gentiobiose (G6G)”.

As for `OC[C@H]1O[C@@H](O[C@@H]2[C@@H](O)[C@H](O[C@H]3[C@H](O)[C@@H](CO)OC(O)[C@@H]3O)O[C@H](CO)[C@H]2O)[C@H](O)[C@@H](O)[C@@H]1O` (stereo partly shown) [G3G3G, laminaritriose], the Ka result in assay [1] was “The smallest laminari-oligosaccharide bound by BuSGBP-B was the trisaccharide (G3G3G)”. Further, in assay [2], the Km entry was “Km values decreased between the di- and trisaccharide”.
